These results are taken from ChEMBL document CHEMBL1201862, “PubChem BioAssay data set” (2004).

Some test systems named below: 786-0; CCRF-CEM; COLO 205; EKVX; HOP-62; HT-29; K562; M14; MDA-MB-231; MOLT-4; NCI-H23; NCI-H522; RPMI-8226; SF-295; SK-MEL-28; SN12C; UO-31; OVCAR-8; RXF 393; SW-620.
Common to all, as to experiment: NCI tumour cell line growth inhibition, 48 h

Where a name gives a salt, the structure may show the parent alone.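 Interpolation was linear, between the two tested concentrations surrounding the appropriate level; five concentrations were tested over 48 hours in 96-well plates. GI50 marks 50% less growth.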 Active and inactive are the calls of the source. No stated cut-off is given here; in the data, active = GI50 up to about 1.1 µM and inactive = higher.

Consider `CCN1CCCC(Nc2cc(C)nc(NC(=N)Nc3ccc(Cl)c(Cl)c3)n2)C1` (configuration not stated), for which the GI50 in the assay on 786-0 was 1.54 µM (inactive); in the assay with CCRF-CEM, 0.63 µM (active); with COLO 205, 1.27 µM (inactive); in the assay with EKVX, 2.86 µM (inactive); in the assay with HOP-62, 1.43 µM (inactive); in the assay on HT-29, 3.06 µM (inactive). Moreover, the GI50 is 0.217 µM (active) with K562; 0.254 µM (active) in the assay with M14; 1.62 µM (inactive) with MDA-MB-231; 0.658 µM (active) with MOLT-4; 1.77 µM (inactive) in the assay on NCI-H23; 1.24 µM (inactive) in the assay with NCI-H522. Moreover, the GI50 in the assay with RPMI-8226 was 0.455 µM (active); in the assay with SF-295, 1.07 µM (active); in the assay on SK-MEL-28, 1.77 µM (inactive); in the assay on SN12C, 2.58 µM (inactive); in the assay on UO-31, 0.982 µM (active).
On to `CNc1ccc(N)cc1C(=O)N1CCC[C@H]1CO`, for which the GI50 in the assay with 786-0, in the assay on CCRF-CEM, in the assay on COLO 205, in the assay on EKVX, with HOP-62 and with HT-29 was > 100 µM (inactive) throughout. Moreover, the GI50 in the assay on M14, in the assay on MDA-MB-231, with MOLT-4, with NCI-H23, with NCI-H522 and in the assay on OVCAR-8 was > 100 µM (inactive) in each case. For the same compound, the GI50 in the assay on RXF 393, in the assay on SF-295, in the assay with SK-MEL-28, in the assay with SN12C, in the assay on SW-620 and in the assay on UO-31 was > 100 µM (inactive) each time.
For the compound `O=C(Nc1ccc(C(F)(F)F)cc1[N+](=O)[O-])c1cccnc1`, the GI50 with 786-0 was 10.7 µM (inactive); in the assay with CCRF-CEM, 4.85 µM (inactive); in the assay with COLO 205, 4.84 µM (inactive); in the assay with EKVX, 4.61 µM (inactive); with HOP-62, 54.5 µM (inactive); with HT-29 it was 2.04 µM (inactive). Moreover, the GI50 in the assay with K562 is 2.45 µM (inactive); in the assay with M14 it was 5.09 µM (inactive); with MDA-MB-231, 17.4 µM (inactive); in the assay with MOLT-4, 9.1 µM (inactive); in the assay with NCI-H23, 33.2 µM (inactive); with NCI-H522, 3.94 µM (inactive). For the same compound, the GI50 in the assay on RPMI-8226 was 5.08 µM (inactive); in the assay on SF-295 it was 4.42 µM (inactive); in the assay on SK-MEL-28, 0.386 µM (active); in the assay with SN12C, 7.83 µM (inactive); with SW-620 it was 3.14 µM (inactive); in the assay on UO-31 it was 8.85 µM (inactive).
`CN[C@@H](C)[C@@H](O)c1ccccc1` [PSEUDOEPHEDRINE HYDROCHLORIDE]: the GI50 was > 100 µM (inactive) with 786-0; > 10 µM (inactive) in the assay on CCRF-CEM; > 100 µM (inactive) with COLO 205; > 100 µM (inactive) in the assay on EKVX; > 100 µM (inactive) with HOP-62; > 100 µM (inactive) with HT-29. In addition, the GI50 is > 100 µM (inactive) in the assay on K562; > 100 µM (inactive) with M14; > 10 µM (inactive) with MDA-MB-231; > 100 µM (inactive) with MOLT-4; > 100 µM (inactive) in the assay on NCI-H23; > 10 µM (inactive) in the assay on NCI-H522. For the same compound, the GI50 with OVCAR-8, in the assay on RPMI-8226, in the assay with SF-295, in the assay on SK-MEL-28, with SN12C and with SW-620 was > 100 µM (inactive) in each case. In addition, in the assay with UO-31, the GI50 was > 100 µM (inactive).
